Source: the NIST ThermoML archive (doi:10.1016/j.fluid.2007.04.023)

Conditions: Liquid, Vibrating tube method

CCCCCCCCCCCCC [tridecane]
Conditions	mass density [kg/m3]
313.01 K, 1023 kPa	743.49
313.01 K, 2030 kPa	744.27
313.01 K, 3025 kPa	745.05
313.01 K, 4027 kPa	745.74
313.01 K, 5014 kPa	746.51
313.01 K, 6024 kPa	747.18
313.01 K, 7021 kPa	747.95
313.01 K, 8036 kPa	748.69
313.01 K, 9019 kPa	749.41
313.01 K, 10018 kPa	750.14
313.01 K, 11030 kPa	750.86
313.01 K, 12006 kPa	751.51
313.01 K, 13017 kPa	752.24
313.01 K, 14035 kPa	752.95
313.01 K, 15021 kPa	753.59
313.01 K, 16019 kPa	754.27
313.01 K, 17019 kPa	754.94
313.01 K, 18024 kPa	755.61
313.01 K, 19025 kPa	756.27
313.01 K, 20043 kPa	756.91
313.01 K, 21011 kPa	757.52
313.01 K, 22020 kPa	758.16
313.01 K, 23018 kPa	758.79
313.01 K, 24004 kPa	759.44
313.01 K, 25036 kPa	760.12
322.92 K, 1017 kPa	736.15
322.92 K, 2006 kPa	736.94
322.92 K, 3025 kPa	737.83
322.92 K, 4021 kPa	738.62
322.92 K, 5021 kPa	739.42
322.92 K, 6043 kPa	740.18
322.92 K, 7018 kPa	740.9
322.92 K, 8022 kPa	741.72
322.92 K, 9008 kPa	742.44
322.92 K, 10012 kPa	743.18
322.92 K, 11015 kPa	743.93
322.92 K, 12006 kPa	744.71
322.92 K, 13030 kPa	745.38
322.92 K, 14010 kPa	746.12
322.92 K, 15026 kPa	746.81
322.92 K, 16024 kPa	747.53
322.92 K, 17016 kPa	748.22
322.92 K, 18010 kPa	748.89
322.92 K, 19007 kPa	749.56
322.92 K, 20023 kPa	750.22
322.92 K, 21020 kPa	750.92
322.92 K, 22010 kPa	751.57
322.92 K, 23040 kPa	752.26
322.92 K, 24006 kPa	752.95
322.92 K, 25006 kPa	753.6
332.78 K, 1015 kPa	729.19
332.78 K, 2020 kPa	730.06
332.78 K, 3022 kPa	730.83
332.78 K, 4016 kPa	731.63
332.78 K, 5020 kPa	732.47
332.78 K, 6016 kPa	733.27
332.78 K, 7006 kPa	734.09
332.78 K, 8018 kPa	734.9
332.78 K, 9013 kPa	735.71
332.78 K, 10008 kPa	736.52
332.78 K, 11016 kPa	737.3
332.78 K, 12007 kPa	738.05
332.78 K, 13012 kPa	738.79
332.78 K, 14021 kPa	739.55
332.78 K, 15011 kPa	740.26
332.78 K, 16020 kPa	741.03
332.78 K, 17015 kPa	741.74
332.78 K, 18005 kPa	742.47
332.78 K, 19017 kPa	743.19
332.78 K, 20014 kPa	743.89
332.78 K, 21016 kPa	744.66
332.78 K, 22046 kPa	745.35
332.78 K, 22994 kPa	745.97
332.78 K, 24032 kPa	746.67
332.78 K, 25030 kPa	747.38
